Assays:
DGAT = assay: Assay for inhibitory activity against DGAT ([14C]triacylglycerol formation, rat microsomal protein); assay type: biochemical; conditions: rat microsomal protein as enzyme source
Text: The derivatives of Chemical Formula 1 in accordance with the present invention are found to inhibit the enzymatic activity of DGAT at a dose-dependent manner (refer to Table 2 and FIG. 1) as measured in a test in which [^14C]triacylglycerol was quantitatively analyzed after enzymatic reaction between 1,2-diacylglycerol and [^14C]palmitoyl-CoA, with microsomal proteins from rats serving as an enzyme source (refer to Example 1).
After enzymatic reaction between two substrates 1,2-diacylglycerol (Sigma, D0138) and [^14C]palmitoyl-CoA (Amersham, CFA583) with the microsomal protein of rat serving as an enzyme source in accordance with Coleman et al, Methods Enzymol., 98-103, 1992, the resulting product [^14C] triacylglycerol was measured for radioactivity. In detail, to a reaction buffer (175 mM Tris-HCl, pH 8.0, 20 μl bovine serum albumin (10 mg/ml), 100 mM MgCl2, 30 μM [^14C] palmitoyl-CoA (0.02 μCi, Amersham) and 200 μM 1,2-dioleoyl glycerol) was added 10 μl of a solution of the samples in dimethylsulfoxide (DMSO) and then 100˜200 μl of an isolated microsomal protein, followed by reaction at 25° C. for 10 min. The reaction was terminated with 1.5 ml of a mixture of 80:20:2 2-propanol:heptane:water (v:v:v). Thereafter, the [^14C] triacylglycerol thus formed was separated. In this regard, 1 ml of heptane and 0.5 ml of distilled water were added to the reaction mixture, which was then shaken. 1 ml of the supernatant thus formed was mixed with 2 ml of an alkaline ethanol solution (ethanol:0.5 N sodium hydroxide:water=50:10:40, v:v:v), followed by shaking. After being taken, 0.65 ml of the supernatant thus formed was measured for radioactivity using an LSC (liquid scintillation counter). The inhibitory activity against DGAT was calculated according to the following Mathematical Formula 1. The inhibitory effects of the benzazole derivatives on DGAT are summarized in Table 2, below while % DGAT inhibition is plotted against doses of compound 22 and 31 in FIG. 1.
T: Cpm of a test group in which a sample was added to an enzymatic buffer,
C: Cpm of a control in which no samples were added to an enzymatic buffer,
B: Cpm of a control in which a sample was added in the absence of any enzyme source.

[1] = system: ICR mice fed a high-fat diet; assay: In vivo assay for anti-obesity activity in mice fed a high-fat diet; design: species or system mouse
Method: Also, the derivatives of Chemical Formula 1 were tested for resistance to obesity by iterative oral administration at a dose of 10 mg/kg into ICR male mice (refer to Example 3). […] When they were administered, the levels of total triglycerides, total cholesterols, and low density lipoprotein (LDL)-cholesterol in the blood recovered to almost normal levels, with a significant increase observed in the level of high density lipoprotein (HDL)-cholesterol in the blood (refer to Tables 6 and 7 and FIGS. 3 and 4).
In order to verify the anti-obesity activity of the benzaldehyde derivatives of Chemical Formula 1 in accordance with the present invention, Compounds 22 and 31 were administered repetitively into rodents as follows.
The experimental animals were 6 week old ICR mice which were purchased from Japan SLC, Inc. via Central Lab. Animal Inc. Korea. They were acclimated to a new environment for one week before use, and fed with a foodstuff commercially available from Deyts, U.S.A. They were bred in an animal lab set at a temperature of 23±3° C. and RH 50±10% under light of 150˜300 Lux for a period of 12 hours (6 a.m.˜6 p.m.) with ventilation 10-20 times/hour. All of the 12 mice used were male, and were organized into two groups of 6. The test group was orally administered once a day at 4 p.m. with 10 mg/kg of the compound (Chemical Formula 1) in the form of a solution in biological saline for 35 days while the control was administered with biological saline only. Xenical, a commercially available lipase inhibitor, was administered orally at a dose of 10 mg/kg once a day as a positive control drug.
The animals were measured for body weight every week and sacrificed on Day 35, after which blood from the heart was sampled. Abdominal fat, epididymal fat, retroperitoneal fat and the liver were excised and weighed. Blood samples were assayed for total triglyceride, total cholesterol, HDL-cholesterol and LDL-cholesterol using respective test kits, all commercially available from Asan Pharmaceutical Co. Ltd., Korea.
For evidence of anti-obesity activity, compounds 22 and 31 were orally administered at regular intervals at a dose of 10 mg/kg into ICR male mice for a predetermined period of time with the concurrent provision of conditional diets thereto. Anatomized abdomens of the animals are given in the photographs of FIG. 2.

Sprague-Dawley rats = assay: Acute toxicity, oral administration for two weeks, rats; assay type: in vivo; conditions: oral 100 and 250 mg/kg for two weeks
Method: An assay of the benzazole derivatives of Chemical Formula 1 in accordance with the present invention was performed for acute toxicity on mice (20±5 g, Central Lab. Animal Inc.) and rats (235±10 g, Central Lab. Animal Inc.).
For this, ICR mice and Sprague-Dawley rats were assigned to 4 groups of 10 and orally administered with Compound 22 in doses of 100 and 250 mg/kg for two weeks.

[2] = Day 35, high-fat diet, 10 mg/kg oral, Mean ± SD
[3] = blood, Day 35, high-fat diet, 10 mg/kg oral, Mean ± SD

O=C(NCc1ccco1)c1ccc2oc(COc3ccc(C45CC6CC(CC(C6)C4)C5)cc3)nc2c1 [Cpd. 22, 2-(4-adamantan-1-yl-phenoxymethyl)-benzoxazole-5-carboxylic acid (furan-2-ylmethyl)-amide]
DGAT (% inhibition in 5 μM) (DGAT; 5 μM): 42.8% | DGAT (% inhibition in 25 μM) (DGAT; 25 μM): 78.03% | abdominal fat increment (FIG. 2) ([1]; 10 mg/kg, compared to groups fed only the high-fat diet, final day): significantly decreased | (Tissue Weight/Body Weight) × 100 Abdominal Fat + Epididymal Fat [1, 2]: 3.97 ± 0.72 | (Tissue Weight/Body Weight) × 100 Liver [1, 2]: 4.66 ± 0.65 | (Tissue Weight/Body Weight) × 100 Retroperitoneal Fat [1, 2]: 1.24 ± 1.31 | (Tissue Weight/Body Weight) × 100 Total Fat [1, 2]: 5.24 ± 0.91 | HDL-Cholesterol [1, 3]: 21.66 ± 2.16 mg/dL | LDL-Cholesterol [1, 3]: 37.57 ± 15.14 mg/dL | Total Cholesterol [1, 3]: 68.89 ± 14.95 mg/dL | Total Triglyceride [1, 3]: 48.33 ± 9.83 mg/dL | inhibition of body weight gain ([1]; high-fat diet, 10 mg/kg oral once a day for 35 days): 68% | Body Weight (g) (Mean ± SD) Week 0 ([1]; high-fat diet, 10 mg/kg oral once a day, Week 0): 26.30 ± 1.27 g | Body Weight (g) (Mean ± SD) Week 1 ([1]; high-fat diet, 10 mg/kg oral once a day, Week 1): 34.75 ± 1.75 g | Body Weight (g) (Mean ± SD) Week 2 ([1]; high-fat diet, 10 mg/kg oral once a day, Week 2): 37.94 ± 2.33 g | Body Weight (g) (Mean ± SD) Week 3 ([1]; high-fat diet, 10 mg/kg oral once a day, Week 3): 40.34 ± 3.39 g | Body Weight (g) (Mean ± SD) Week 4 ([1]; high-fat diet, 10 mg/kg oral once a day, Week 4): 42.48 ± 2.90 g | Body Weight (g) (Mean ± SD) Week 5 ([1]; high-fat diet, 10 mg/kg oral once a day, Week 5): 43.90 ± 1.20 g | apparent symptoms (Sprague-Dawley rats): no apparent symptoms different from the control

— patent publication US8304448B2, “Method for the treatment of metabolic disorder containing benzazole derivatives as an active ingredient” (Korea Research Institute of Bioscience and Biotechnology, priority 2006, dated 2012)
